Measurements: US5698411A, “Method for determining activity of enzymes in metabolically active whole cells” (priority 1995, dated 1997)
Numbered stars: 1 amine (or outer) side, 2 acyl side, 3 side chain; on linkers, the order of the positions; unused ones are H or OH. Bridge positions count the residues as written; N and C are the ends. Peptide text beside a SMILES is read from it. I, II: the chains in the order shown. Rhodamine110 = O=C1OC2(c3ccc(N[*:1])cc3Oc3cc(N[*:2])ccc32)c2ccccc21

Experiments:
Format in all cases: cell-based, human
granulocytes [1] = experiment: aberrant enzyme activities in febrile children, granulocytes (Table 7)
lymphocytes [2] = experiment: enzyme activity with fluorogenic substrate, normal lymphocytes (Table 3A)
monocytes [3] = experiment: aberrant enzyme activities in febrile children, monocytes (Table 7)
monocytes [4] = experiment: enzyme activity with fluorogenic substrate, normal monocytes (Table 3A)
lymphocytes [5] = experiment: aberrant enzyme activities in febrile children, lymphocytes (Table 7)
granulocytes [6] = experiment: enzyme activity with fluorogenic substrate, normal granulocytes (Table 3A)
lymphocytes [7] = experiment: peptidase activity in leukemia and non-leukemia patients, lymphocytes (Table 6C); set-up: unit not given here
granulocytes [8] = experiment: peptidase activity in leukemia and non-leukemia patients, granulocytes (Table 6C); set-up: unit not given here
[9] = system: metabolically active whole cell; experiment: substrate panel in normals and HIV + patients, TB infection (Table 4); set-up: unit not given here
Procedure: A panel of assay compounds are assembled consisting of Ala-aminopeptidase and Lys-aminopeptidase, Dipeptidyl peptidase IV (Ala-Ala)2 rhodamine 110 and Cathepsin D to indicate possible TB infection in AIDS related cases.
A panel Of enzymatic substrates is performed consisting of Ala-aminopeptidase and Lys-aminopeptidase, Dipeptidyl peptidase IV (Ala-Ala)2 rhodamine 110 and Cathepsin D to indicate possible TB infection in AIDS related cases.

[10] = P88 Enteritis, listed as Z-Gly/Pro-M

O=C(NCC(=O)N1CCC[C@H]1C(=O)Nc1ccc2c(c1)Oc1cc(NC(=O)[C@@H]3CCCN3C(=O)CNC(=O)OCc3ccccc3)ccc1C21OC(=O)c2ccccc21)OCc1ccccc1 [Z-GP-M, (carbobenzyloxycarbonyl-Gly-Pro)2 Rho 110 (modified)]
aberrant enzyme activity, GRANS (granulocytes [1]; [10]): - (>0.25 Decrease over normal range)
aberrant enzyme activity, GRANS (granulocytes [1]; P92 Adenitis): - (>0.25 Decrease over normal range)
aberrant enzyme activity, GRANS (granulocytes [1]; P97 Pyelonephritis): .smallcircle.
aberrant enzyme activity, GRANS (granulocytes [1]; P103 Viral Syndrome): .smallcircle.
NORMAL LEUKOCYTE ENZYME ACTIVITY LYMPHS Mean (lymphocytes [2]): 53.74
aberrant enzyme activity, MONOS (monocytes [3]; [10]): - (>0.25 Decrease over normal range)
aberrant enzyme activity, MONOS (monocytes [3]; P89 Viral Stomatitis): .smallcircle.
aberrant enzyme activity, MONOS (monocytes [3]; P92 Adenitis): - (>0.25 Decrease over normal range)
aberrant enzyme activity, MONOS (monocytes [3]; P97 Pyelonephritis): .smallcircle.
aberrant enzyme activity, MONOS (monocytes [3]; P103 Viral Syndrome): .smallcircle.
NORMAL LEUKOCYTE ENZYME ACTIVITY MONOS Mean (monocytes [4]): 119.81
aberrant enzyme activity, LYMPHS (lymphocytes [5]; [10]): - (>0.25 Decrease over normal range)
aberrant enzyme activity, LYMPHS (lymphocytes [5]; P89 Viral Stomatitis): - (>0.25 Decrease over normal range)
aberrant enzyme activity, LYMPHS (lymphocytes [5]; P92 Adenitis): - (>0.25 Decrease over normal range)
aberrant enzyme activity, LYMPHS (lymphocytes [5]; P97 Pyelonephritis, listed as Z-Gly/Pro-M): - (>0.25 Decrease over normal range)
aberrant enzyme activity, LYMPHS (lymphocytes [5]; P103 Viral Syndrome): - (>0.25 Decrease over normal range)
NORMAL LEUKOCYTE ENZYME ACTIVITY GRANS Mean (granulocytes [6]): 130.62

C[C@@H](O)[C@H](NC(=O)OCc1ccccc1)C(=O)N1CCC[C@H]1C(=O)Nc1ccc2c(c1)Oc1cc(NC(=O)[C@@H]3CCCN3C(=O)[C@@H](NC(=O)OCc3ccccc3)[C@@H](C)O)ccc1C21OC(=O)c2ccccc21 [Z-TP6.5M]
aberrant enzyme activity, GRANS (granulocytes [1]; P92 Adenitis): - (>0.25 Decrease over normal range)
aberrant enzyme activity, GRANS (granulocytes [1]; P97 Pyelonephritis): .smallcircle.
aberrant enzyme activity, GRANS (granulocytes [1]; P103 Viral Syndrome): .smallcircle.
NORMAL LEUKOCYTE ENZYME ACTIVITY LYMPHS Mean (lymphocytes [2]): 20.62
aberrant enzyme activity, MONOS (monocytes [3]; P92 Adenitis): - (>0.25 Decrease over normal range)
aberrant enzyme activity, MONOS (monocytes [3]; P97 Pyelonephritis): .smallcircle.
aberrant enzyme activity, MONOS (monocytes [3]; P103 Viral Syndrome): .smallcircle.
NORMAL LEUKOCYTE ENZYME ACTIVITY MONOS Mean (monocytes [4]): 45.70
aberrant enzyme activity, LYMPHS (lymphocytes [5]; P92 Adenitis): - (>0.25 Decrease over normal range)
aberrant enzyme activity, LYMPHS (lymphocytes [5]; P97 Pyelonephritis): .smallcircle.
aberrant enzyme activity, LYMPHS (lymphocytes [5]; P103 Viral Syndrome): .smallcircle.
NORMAL LEUKOCYTE ENZYME ACTIVITY GRANS Mean (granulocytes [6]): 55.07

C[C@H](NC(=O)CNC(=O)[C@H](Cc1ccccc1)NC(=O)CN)C(=O)Nc1ccc2c(c1)Oc1cc(NC(=O)[C@H](C)NC(=O)CNC(=O)[C@H](Cc3ccccc3)NC(=O)CN)ccc1C21OC(=O)c2ccccc21 [GFGA, (Gly-Phe-Gly-Ala)2 Rho 110] (I: H-GFGA / II: H-GFGA; linker I:C-II:C via Rhodamine110)
aberrant enzyme activity, GRANS (granulocytes [1]; P88 Enteritis): .smallcircle.
aberrant enzyme activity, GRANS (granulocytes [1]; P89 Viral Stomatitis): .smallcircle.
aberrant enzyme activity, GRANS (granulocytes [1]; P92 Adenitis): .smallcircle.
aberrant enzyme activity, GRANS (granulocytes [1]; P97 Pyelonephritis): .smallcircle.
aberrant enzyme activity, GRANS (granulocytes [1]; P103 Viral Syndrome): .smallcircle.
NORMAL LEUKOCYTE ENZYME ACTIVITY LYMPHS Mean (lymphocytes [2]): 0.36
aberrant enzyme activity, MONOS (monocytes [3]; P88 Enteritis): .smallcircle.
aberrant enzyme activity, MONOS (monocytes [3]; P89 Viral Stomatitis): .smallcircle.
aberrant enzyme activity, MONOS (monocytes [3]; P92 Adenitis): .smallcircle.
aberrant enzyme activity, MONOS (monocytes [3]; P97 Pyelonephritis): .smallcircle.
aberrant enzyme activity, MONOS (monocytes [3]; P103 Viral Syndrome): .smallcircle.
NORMAL LEUKOCYTE ENZYME ACTIVITY MONOS Mean (monocytes [4]): 1.01
aberrant enzyme activity, LYMPHS (lymphocytes [5]; P88 Enteritis): .smallcircle.
aberrant enzyme activity, LYMPHS (lymphocytes [5]; P89 Viral Stomatitis): .smallcircle.
aberrant enzyme activity, LYMPHS (lymphocytes [5]; P92 Adenitis): .smallcircle.
aberrant enzyme activity, LYMPHS (lymphocytes [5]; P97 Pyelonephritis): .smallcircle.
aberrant enzyme activity, LYMPHS (lymphocytes [5]; P103 Viral Syndrome): .smallcircle.
NORMAL LEUKOCYTE ENZYME ACTIVITY GRANS Mean (granulocytes [6]): 1.00

(Gly)2 Rho 110
enzyme activity, Lymphs (lymphocytes [7]; J4 11/21/91 acute leuk.): 14.02
enzyme activity, Lymphs (lymphocytes [7]; J4 12/2/91 A L): 27.32
enzyme activity, Lymphs (lymphocytes [7]; J4 12/3/91 acute leuk.): 31.51
enzyme activity, Lymphs (lymphocytes [7]; J5 11/27/91 A M L): 28.36
enzyme activity, Lymphs (lymphocytes [7]; J19 11/27/91 C L L): 11.39
enzyme activity, Lymphs (lymphocytes [7]; J22 12/2/91 A M L): 24.50
enzyme activity, Lymphs (lymphocytes [7]; J22 12/9/91 A M L): 27.14
enzyme activity, Lymphs (lymphocytes [7]; N191 normal): 43.57
enzyme activity, Lymphs (lymphocytes [7]; N192 normal): 37.47
enzyme activity, Lymphs (lymphocytes [7]; N193 normal): 39.30
enzyme activity, Lymphs (lymphocytes [7]; N194 normal): 39.76
enzyme activity, Lymphs (lymphocytes [7]; N195 normal): 48.18
enzyme activity, Lymphs (lymphocytes [7]; N197 normal): 42.96
enzyme activity, Lymphs (lymphocytes [7]; N199 normal): 30.68
enzyme activity, Lymphs (lymphocytes [7]; N200 normal): 42.28
enzyme activity, Lymphs (lymphocytes [7]; N201 normal): 45.32
enzyme activity, Lymphs (lymphocytes [7]; N202 normal): 44.55
enzyme activity, Lymphs (lymphocytes [7]; N206 normal): 55.56
enzyme activity, Lymphs (lymphocytes [7]; P68 tachycardia): 59.29
enzyme activity, Lymphs (lymphocytes [7]; P69 pancreatic CA): 67.38
enzyme activity, Lymphs (lymphocytes [7]; P70 cirrhosis/hemobilia): 54.84
enzyme activity, Lymphs (lymphocytes [7]; P71 ac. pyelonephritis): 41.93
aberrant enzyme activity, GRANS (granulocytes [1]; P88 Enteritis): .smallcircle.
aberrant enzyme activity, GRANS (granulocytes [1]; P89 Viral Stomatitis): .smallcircle.
aberrant enzyme activity, GRANS (granulocytes [1]; P92 Adenitis): .smallcircle.
aberrant enzyme activity, GRANS (granulocytes [1]; P97 Pyelonephritis): .smallcircle.
aberrant enzyme activity, GRANS (granulocytes [1]; P102 UTI): .smallcircle.
aberrant enzyme activity, GRANS (granulocytes [1]; P103 Viral Syndrome): .smallcircle.
NORMAL LEUKOCYTE ENZYME ACTIVITY LYMPHS Mean (lymphocytes [2]): 18.18
enzyme activity, Grans (granulocytes [8]; J4 11/21/91 acute leuk.): 27.79
enzyme activity, Grans (granulocytes [8]; J4 12/2/91 A L): 47.74
enzyme activity, Grans (granulocytes [8]; J4 12/3/91 acute leuk.): 48.53
enzyme activity, Grans (granulocytes [8]; J5 11/27/91 A M L): 56.33
enzyme activity, Grans (granulocytes [8]; J19 11/27/91 C L L): 48.80
enzyme activity, Grans (granulocytes [8]; J22 12/2/91 A M L): 34.02
enzyme activity, Grans (granulocytes [8]; J22 12/9/91 A M L): 38.47
enzyme activity, Grans (granulocytes [8]; N191 normal): 73.20
enzyme activity, Grans (granulocytes [8]; N192 normal): 48.67
enzyme activity, Grans (granulocytes [8]; N193 normal): 63.33
enzyme activity, Grans (granulocytes [8]; N194 normal): 60.30
enzyme activity, Grans (granulocytes [8]; N195 normal): 79.13
enzyme activity, Grans (granulocytes [8]; N197 normal): 76.88
enzyme activity, Grans (granulocytes [8]; N199 normal): 45.00
enzyme activity, Grans (granulocytes [8]; N200 normal): 59.39
enzyme activity, Grans (granulocytes [8]; N201 normal): 75.48
enzyme activity, Grans (granulocytes [8]; N202 normal): 66.22
enzyme activity, Grans (granulocytes [8]; N206 normal): 91.93
enzyme activity, Grans (granulocytes [8]; P68 tachycardia): 100.00
enzyme activity, Grans (granulocytes [8]; P69 pancreatic CA): 88.04
enzyme activity, Grans (granulocytes [8]; P70 cirrhosis/hemobilia): 88.42
enzyme activity, Grans (granulocytes [8]; P71 ac. pyelonephritis): 59.35
MEAN DELTA FL ([9]; HIV + PATIENTS): 62.4
MEAN DELTA FL ([9]; NORMALS): 101.1
aberrant enzyme activity, MONOS (monocytes [3]; P88 Enteritis): .smallcircle.
aberrant enzyme activity, MONOS (monocytes [3]; P89 Viral Stomatitis): .smallcircle.
aberrant enzyme activity, MONOS (monocytes [3]; P92 Adenitis): .smallcircle.
aberrant enzyme activity, MONOS (monocytes [3]; P97 Pyelonephritis): + (>0.25 Increase over normal range)
aberrant enzyme activity, MONOS (monocytes [3]; P103 Viral Syndrome): .smallcircle.
NORMAL LEUKOCYTE ENZYME ACTIVITY MONOS Mean (monocytes [4]): 61.47
aberrant enzyme activity, LYMPHS (lymphocytes [5]; P88 Enteritis): .smallcircle.
aberrant enzyme activity, LYMPHS (lymphocytes [5]; P89 Viral Stomatitis): - (>0.25 Decrease over normal range)
aberrant enzyme activity, LYMPHS (lymphocytes [5]; P92 Adenitis): .smallcircle.
aberrant enzyme activity, LYMPHS (lymphocytes [5]; P97 Pyelonephritis): .smallcircle.
aberrant enzyme activity, LYMPHS (lymphocytes [5]; P102 UTI): .smallcircle.
aberrant enzyme activity, LYMPHS (lymphocytes [5]; P103 Viral Syndrome): .smallcircle.
NORMAL LEUKOCYTE ENZYME ACTIVITY GRANS Mean (granulocytes [6]): 29.48
